The subject of data set [1] is Canis familiaris. The data set can be described thus: Oral effective dose required for inhibition of Ang II pressor response in conscious dog. The data set is classed as functional. Particulars: Canis lupus familiaris.
The subject of data set [2] is Rattus norvegicus. The data set can be described thus: Oral effective dose required for inhibition of Ang II pressor response in conscious rat. The format is functional.
For another data set, the system named is Rhesus monkey. The data set can be described thus: Oral effective dose required for inhibition of Ang II pressor response in conscious rhesus monkey. The format is functional, Cercopithecidae. The conditions noted are these: Macaca mulatta.
For data set [3], the species on record is Rattus norvegicus. The data set can be described thus: Oral effective dose required for inhibition of Ang II pressor response in rats. The data set is classed as functional.
Data set [4] addresses T1, Angiotensin II receptor (AT-1) type-1 (Rattus norvegicus, UniProt P29089+P25095).
T1 sequence (P29089 whole entry): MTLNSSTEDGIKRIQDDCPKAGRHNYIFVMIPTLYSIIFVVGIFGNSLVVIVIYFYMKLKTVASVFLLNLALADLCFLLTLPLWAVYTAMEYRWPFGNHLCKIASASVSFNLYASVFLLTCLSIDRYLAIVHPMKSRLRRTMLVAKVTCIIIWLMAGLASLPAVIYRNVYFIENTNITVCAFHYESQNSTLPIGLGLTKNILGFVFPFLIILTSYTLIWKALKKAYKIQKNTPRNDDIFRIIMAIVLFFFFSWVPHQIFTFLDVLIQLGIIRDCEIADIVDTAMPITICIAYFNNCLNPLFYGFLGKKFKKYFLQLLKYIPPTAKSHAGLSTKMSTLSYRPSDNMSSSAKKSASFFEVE
T1 sequence (P25095 whole entry): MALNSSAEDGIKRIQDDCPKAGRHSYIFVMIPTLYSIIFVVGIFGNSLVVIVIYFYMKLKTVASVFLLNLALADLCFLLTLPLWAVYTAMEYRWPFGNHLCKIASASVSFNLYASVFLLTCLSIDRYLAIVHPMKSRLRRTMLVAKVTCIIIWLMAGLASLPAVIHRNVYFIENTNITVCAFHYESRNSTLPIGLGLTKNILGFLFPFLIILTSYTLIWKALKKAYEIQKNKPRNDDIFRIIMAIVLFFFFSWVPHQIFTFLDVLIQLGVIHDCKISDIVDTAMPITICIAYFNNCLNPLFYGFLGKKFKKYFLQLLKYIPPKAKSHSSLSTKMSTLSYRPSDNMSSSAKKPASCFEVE
Nature of the data set: Binding affinity was evaluated towards Angiotensin II receptor, type 1 in rat adrenal membrane. The data set is classed as cell membranes.

Data set [5] is filed under the species Oryctolagus cuniculus. The data set can be described thus: Compound was tested for its antagonistic activity against angiotensin II-induced contractions in rabbit aorta. The data set is classed as functional.
The target of data set [6] is T1, Angiotensin II receptor (AT-1) type-1. The data set can be described thus: In vitro antagonistic potency against Angiotensin II receptor, type 1 in rat adrenal cortex. The format is functional, tissue-based.
The target is the same in data set [7]. Nature of the data set: Inhibitory activity against Angiotensin II receptor, type 1 in rat aortic membrane. The data set is classed as cell membranes.
Data set [8] addresses T2, Type-2 angiotensin II receptor (Homo sapiens, UniProt P50052).
T2 sequence (P50052 whole entry): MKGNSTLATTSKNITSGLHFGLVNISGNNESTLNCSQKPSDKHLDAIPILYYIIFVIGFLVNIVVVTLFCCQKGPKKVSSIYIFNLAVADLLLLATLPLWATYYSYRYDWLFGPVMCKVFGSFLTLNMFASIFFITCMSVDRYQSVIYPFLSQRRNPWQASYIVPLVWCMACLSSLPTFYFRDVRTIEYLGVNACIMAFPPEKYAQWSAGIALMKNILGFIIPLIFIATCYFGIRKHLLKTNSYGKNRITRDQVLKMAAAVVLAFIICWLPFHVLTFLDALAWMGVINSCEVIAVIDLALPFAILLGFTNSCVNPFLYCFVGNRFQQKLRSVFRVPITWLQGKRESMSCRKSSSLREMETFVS
Nature of the data set: Ki value was evaluated against Angiotensin II receptor, type 2.

In data set [9] the target is T3, Type-1 angiotensin II receptor (Homo sapiens, UniProt P30556).
T3 sequence (P30556 whole entry): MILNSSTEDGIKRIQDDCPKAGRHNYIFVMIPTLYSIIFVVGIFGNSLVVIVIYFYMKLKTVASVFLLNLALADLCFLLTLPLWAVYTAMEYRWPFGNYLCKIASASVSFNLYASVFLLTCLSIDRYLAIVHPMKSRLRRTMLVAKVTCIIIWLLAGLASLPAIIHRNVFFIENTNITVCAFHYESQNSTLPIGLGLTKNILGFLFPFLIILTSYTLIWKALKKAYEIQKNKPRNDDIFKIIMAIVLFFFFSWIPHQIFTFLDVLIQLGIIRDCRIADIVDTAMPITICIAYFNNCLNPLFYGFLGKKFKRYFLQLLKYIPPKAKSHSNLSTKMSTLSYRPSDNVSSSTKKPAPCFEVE
Nature of the data set: Ki value was evaluated against Angiotensin II receptor, type 1.

Data set [10] deals with Rattus norvegicus. The data set can be described thus: Intravenous effective dose required for lowering blood pressure in renal hypertensive rats (RHR). The data set is classed as functional.
Data set [11] is filed under the species Oryctolagus cuniculus. The data set can be described thus: Inhibitory activity against angiotensin II type 1 induced contractions in rabbit aorta. The format is functional.
The species entered for data set [12] is Oryctolagus cuniculus. The data set can be described thus: PD' 2 value was evaluated for antagonistic activity in rabbit aorta. The data set is classed as functional.
The test system of data set [13] is Rattus norvegicus. Nature of the data set: Effective dose was evaluated in pithed normotensive rats by intraveneous administration. The data set is classed as functional. The conditions noted are these: iv.
Data set [14] concerns Rattus norvegicus. Nature of the data set: Effective dose was evaluated in pithed normotensive rats by oral administration. The data set is classed as functional.
For data set [15], the species on record is Rattus norvegicus. The data set can be described thus: pD'2 value was evaluated against in rat portal vein. The format is functional.
Data set [16] can be described thus: Inhibitory activity was evaluated against Angiotensin II receptor, type 2.
A further data set has as its system HASMC. The data set can be described thus: Inhibitory activity against Ang II-induced proliferation of human aortic smooth muscle cells in a dose dependent manner. The format is functional, cell-based.
Data set [17] is filed under the species Rattus norvegicus. Nature of the data set: Oral effective dose required for lowering blood pressure in renal hypertensive rats (RHR). The data set is classed as functional.
The subject of data set [18] is Canis familiaris. The data set can be described thus: Compound at an oral dose of 30 mg/Kg was tested for the inhibition of Ang-II induced pressor responses in conscious dog. The data set is classed as functional. The conditions noted are these: Canis lupus familiaris.
For data set [19], the target named is T4, Type-1 angiotensin II receptor (Oryctolagus cuniculus, UniProt P34976).
T4 sequence (P34976 whole entry): T3 sequence (P30556 whole entry) with I2M, V49A, I254V, I270V, R272H, R311K, T349S, A353V
Nature of the data set: Binding affinity was evaluated towards Angiotensin II receptor, type 1 in rabbit aorta. The format is tissue-based.

Data set [20] can be described thus: Oral bioavailability in rat. The conditions noted are these: in vivo. The data set is classed as ADME, organism-based.
In data set [21] the target is T1, Angiotensin II receptor (AT-1) type-1. The data set can be described thus: In vitro antagonistic potency against Angiotensin II receptor, type 1 in rat liver using [125I]-Sar1-Ile8-Ang II as radioligand. The data set is classed as functional, tissue-based.

The structures appear in SMILES notation. Changes are numbered by the printed parent chain.

Consider `CCc1nc2c(C)cc(C)nc2n1Cc1ccc(-c2ccccc2S(=O)(=O)NC(=O)c2ccccc2)cc1`, for which the ED50 with Canis familiaris [1] worked out at 0.035 mg/kg; in the data set on Rattus norvegicus [2] it was 0.067 mg/kg; with Rhesus monkey it was 0.1 mg/kg.
The molecule `CCOc1nc2cccc(C(=O)OC(C)OC(=O)OC3CCCCC3)c2n1Cc1ccc(-c2ccccc2-c2nn[nH]n2)cc1` (centres undefined) [CANDESARTAN CILEXETIL] gave a 50% effective dose (ED50) in the data set filed under Rattus norvegicus [3] of 0.069 mg/kg.
`CCCc1nc(C)n2[nH]c(=O)nc2c1Cc1ccc(-c2ccccc2-c2nnn[nH]2)cc1`: the inhibition constant Ki in data set [4] came out at 24 nM. The same molecule came in with a Kb in the data set listed under Oryctolagus cuniculus [5] of 0.29 nM.
As to `CCCCCCC(C(=O)O)n1cnc(NC(=O)c2cccc(O)c2C(=O)O)c1` (centres undefined), in data set [6], the Ki turned out to be 4400 nM. Also, the Kb in the data set listed under Oryctolagus cuniculus [5] is 78 nM.
In the case of `CCCCC(=O)N(Cc1ccc(-c2ccccc2-c2nnn[nH]2)cc1)[C@H](C(=O)O)C(C)C`, the half-maximal inhibitory concentration (IC50) in [7] came to 2.7 nM.
For the molecule `CCCCCN(C(=O)NC)c1ccc2nc(CCCC)n(Cc3ccc(NC(=O)c4c(Cl)ccc(Cl)c4C(=O)O)cc3)c2c1`, the values for the Ki in data set [8] and in data set [9] were 730 nM and 20 nM, respectively. In the data set on Rattus norvegicus [10], this molecule had an ED30 of 2 mg/kg.
Consider `CCOc1nc2cccc(C(=O)O)c2n1Cc1ccc(-c2ccccc2-c2nnn[nH]2)cc1`, for which the half-maximal inhibitory concentration (IC50) in the data set listed under Oryctolagus cuniculus [11] is 0.3 nM.
In the case of `CCc1nc2c(n1Cc1ccc(-c3ccccc3-c3nn[nH]n3)cc1)/C(=C/C(=O)O)CCCC2`, in the data set listed under Oryctolagus cuniculus [12], the “PD' 2” value is reported as 9.91.
Regarding `CCCCc1nc(SC)c(C(=O)O)n1Cc1ccc(-c2ccccc2S(=O)(=O)NC(=O)NCCC)cc1`, the ED50 in the data set with Rattus norvegicus [13] is 0.11 mg/kg; with Rattus norvegicus [14] it was 0.7 mg/kg. Besides, the “pD'2” value in the data set filed under Rattus norvegicus [15] was 10.15. Also, the IC50 in data set [16] is 920 nM.
Turning to `CCCCc1nc(Cl)c(CO)n1Cc1ccc(-c2ccccc2-c2nnn[nH]2)cc1` [LOSARTAN], in the data set with HASMC, the concentration for half-maximal inhibition (IC50) worked out at 0.71 nM. Further, the Kb in the data set filed under Oryctolagus cuniculus [5] was 22 nM. Also, the negative logarithm of the KB (pKB) in the data set listed under Oryctolagus cuniculus [5] amounted to 8.2. Further, the ED30 was 0.78 mg/kg with Rattus norvegicus [10] and 0.59 mg/kg in the data set filed under Rattus norvegicus [17].
In the data set on Canis familiaris [18], `CCCCc1nc(CCCC)n(Cc2ccc(-c3ccccc3-c3nnn[nH]3)nc2)n1` [FORASARTAN] registered an inhibition in vivo at 30 mg/kg of 91%.
On to `CCCCc1nc(C)n(Cc2sccc2C(=O)OC)c(=O)c1Cc1ccc(-c2ccccc2-c2nnn[nH]2)cc1`, for which affinity in data set [19] was put at a Ki of 0.9 nM. This molecule registered a pKb in the data set filed under Oryctolagus cuniculus [5] of 9.5.
`CCCCc1nc(Cl)c(C(=O)O)n1Cc1ccc2oc(-c3ccccc3-c3nnn[nH]3)c(Br)c2c1` [ZOLASARTAN] gave a bioavailability in data set [20] of 3%. In addition, the “Log Ki” value in [21] is -9. In the data set listed under Oryctolagus cuniculus [5], this molecule yielded a pKB of 9.8.

As usually defined, the ED50 is the midpoint of the dose-response relation. The term Ki denotes a dissociation constant, usually derived from enzyme kinetics or from competition with a known ligand. For orientation: Kb means the affinity of an antagonist, worked out from how it opposes an agonist. One may read the IC50 as the concentration that inhibits the measured activity by half. Usually pKB stands for −log10 of the KB, conventionally taken in molar units. Usually inhibition in vivo stands for the drop in the measured response relative to a control, in per cent. As a reminder, the pKb is the negative decadic logarithm of the Kb, by convention in mol/L. Usually bioavailability stands for dose-corrected exposure relative to a reference, in per cent.

(Values after ChEMBL document CHEMBL1129469, “Nonpeptide angiotensin II receptor antagonists: the next generation in antihypertensive therapy” (J Med Chem, 1996).)
